Laboratory results: US20230000835A1, “LYSINE-SPECIFIC HISTONE DEMETHYLASE INHIBITORS FOR THE TREATMENT OF MYELOPROLIFERATIVE NEOPLASMS” (Imago Biosciences, Inc., priority 2019, published 2023)
Where a name gives a salt, the structure may show the parent alone.

Legend:
[1] = system: patients with myelofibrosis; assay: Phase 2b clinical study in myelofibrosis: spleen volume at week 12; format: in vivo, human
Description: A multi-center, open label, dose-range finding study to assess the safety, optimally effective dosing rules, steady-state pharmacokinetics and pharmacodynamics of Compound 1 orally once daily in patients with myelofibrosis was conducted in a Phase 1/2a study. • Primary objectives were to evaluate, in MF patients the effect of Compound 1 on: Safety and tolerability • Pharmacokinetics (Phase 1/2a only) • Reduction in spleen volume
This study initiated as a Phase 1/2a study assessing the safety of the starting dose, an 85 day duration of treatment, and the pharmacokinetic and pharmacodynamic effects of Compound 1, with transition to a Phase 2b study incorporating changes supported by the earlier pharmacokinetic and pharmacodynamic studies and safety assessments. This study consisted of two treatment periods: the Initial Treatment Period (ITP), followed by the Additional Treatment Period (ATP). Patients commenced enrolment in the Phase 2b portion of the study, in which the ITP has been extended such that patients were treated daily for 169 days. The ATP, also extended, offered treatment to qualifying patients for an additional 169 days.
Initial Treatment Period. During the ITP, patients initially returned for study assessments twice weekly for the first week (ITP Days 0, 3 and 7); post-dosing of 3 patients at the new Ds, the DSMC convened to assess the necessity of the Day 3 visit. Patients returned weekly for the next 7 weeks (ITP Days 14, 21, 28, 35, 42, 49 and 56), at least bi-weekly for 8 weeks (ITP Days 70, 84, 98 and 112) and then monthly for 8 weeks (ITP Days 140 and 168). It was anticipated that by Week 8 (Day 56) patients will have achieved a stable dose, with weekly titrations no longer necessary. For the exceptional patient whose dose had not stabilized, weekly visits continued at the PI's discretion (note: bi-weekly visits may also continue post Day 112). On Days 84 and 168, patients underwent abdominal magnetic resonance imaging (MRI), or computerized tomography (CT) if the patient was not a candidate for MRI. On Day 168, bone marrow sampling was also required. […]

[2] = system: patients with high-risk MF; assay: Clinical studies in myelofibrosis: safety and tolerability (adverse events); format: in vivo
Description: A multi-center, open-label study evaluating the safety, tolerability, steady-state pharmacokinetics and pharmacodynamics of Compound 1 administered orally once daily in patients with high-risk MF, including primary myelofibrosis (PMF), post-polycythemia vera myelofibrosis (PPV-MF), and post-essential thrombocythemia myelofibrosis (PET-MF) (collectively referred to as ‘MF’) was initiated as a Phase 1/2A study, and was expanded to a Phase 2b study.
This study was conducted at multiple sites. Up to 50 patients, eighteen years of age or older, with high-risk myelofibrosis were treated. The primary objectives included safety and tolerability, pharmacokinetics (PK; Phase 1/2A only) and spleen volume reduction (SVR). […] Key inclusion criteria included: high- or intermediate-2 risk myelofibrosis; per the Investigator's judgment have failed (refractory or resistant to, inadequately controlled by or intolerant of), or are not a candidate for, available approved therapy including ruxolitinib; platelet count ≥100K/μL; and, circulating blasts ≤10%.
Safety. […] Four SAEs attributed to Compound 1 (all Grade 3), including painful splenomegaly, headache, nausea and vomiting, and heart failure. There were 139 AEs of all grades attributed to Compound 1. The most common AEs across the 31 subjects from both of the above studies were thrombocytopenia (11 subjects, 35%), anemia (3 subjects, 10%) and nausea (1, 3%). The most common grade 3/4 AEs attributed to Compound 1 were Anemia (6 subjects, 19%) and neutropenia (3 subjects, 10%).

[3] = Phase 2b patients at Week 12, n=14

## CN1CCN(C(=O)[C@H](CCCN[C@@H]2C[C@H]2c2ccc(F)cc2)NC(=O)c2ccc(-n3ccnn3)cc2)CC1 [Compound 1, N-[(2S)-5-{[(1R, 2S)-2-(4-fluorophenyl)cyclopropyl]amino}-1-(4-methylpiperazin-1-yl)-1-oxopentan-2-yl]-4-(1H-1,2,3-triazol-1-yl)benzamide, bis-tosylate salt]
[1]; [3]
  patients with a reduction of spleen volume of ≥20%: 29%
  patients with a reduction of spleen volume of ≥35%: 14%
[1]; Phase 2b patients, n=14
  median change of spleen volume to Wk 12: −15%
[2]; 31 subjects
  subjects with anemia (most common AEs): 10%
  subjects with grade 3/4 Anemia attributed to the drug: 19%
  subjects with grade 3/4 neutropenia attributed to the drug: 10%
  subjects with nausea (most common AEs): 3%
  subjects with thrombocytopenia (most common AEs): 35%
[2]; heterogeneous population of patients with MF
  tolerability: well tolerated
[2]; human, in vivo
  number of AEs of all grades attributed to the drug: 139
[2]; painful splenomegaly, headache, nausea and vomiting, heart failure
  number of SAEs attributed to the drug (all Grade 3): Four
